Reference: patent US8440628B2, “Medical compositions containing ghrelin” (Daiichi Sankyo Company, Limited, priority 2002, dated 2013)

Assays:
[1] = Stability of human ghrelin in 0.1M HCl and Mcllvain buffer solutions of various pH at 25°C (Example 2, HPLC peak area ratio); format: physicochemical; conditions: human ghrelin 0.5 mg/mL in Mcllvain buffer
Method: Human ghrelin was dissolved in the following aqueous solutions in the concentration of about 0.15 μmol/mL (0.5 mg/mL).
0.1M HCl aqueous solution (pH: 1.1)
The pH was adjusted with 0.1M citric aqueous acid and 0.2M dibasic sodium phosphate aqueous solution.
Each solution were stored at 25±2° C. for 8, 24, 48 and 72 hours respectively, and the obtained solutions were detected by HPLC analysis in comparison to the solutions before storage. […] No significant changes of pH in solution before storage and after storage were observed.

[2] = Lyophilized powder for in situ preparation: solubility, content and pH after redissolving (Example 11); conditions: solution just after preparation, before lyophilization
Method: Human ghrelin was dissolved in 5% mannitol-0.05M glycine hydrochloride buffer solution (pH 3.5) with about 0.3 nmol/mL (1.0 μg/mL) concentration, and the human ghrelin concentration of this solution just after preparation was measured by HPLC method, and pH value of this solution was also measured. […] Then, this solution was lyophilized at −25° C. for 24 hours in vacuo, and the obtained powder was further dried at 20° C. for 24 hours in vacuo.

[3] = Adsorption inhibiting effect of anti-adsorbents on human ghrelin in glass and polypropylene test tubes (Example 9); format: physicochemical; conditions: human ghrelin 1.0 μg/mL in 5% mannitol-0.05M glycine hydrochloride buffer (pH 3.5), anti-adsorbent None (control)
Method: As the anti-adsorbent, the surfactant, that is, polyoxyethylene sorbitan monooleate (hereinafter, referred to as Tween® 80), and benzalkonium chloride were selected.
The anti-adsorbent was added to this solution with 0.01% or 0.1% concentration.
The human ghrelin concentrations of each solution were measured by HPLC method right after preparation, and these solutions were replaced in glass test tubes. After that, each solution were further replaced in new glass test tubes, and same operation was repeated for 5 and 10 times, then, the human ghrelin concentrations of each treated solution were measured by HPLC method. As a control, the solution not containing anti-adsorbent was examined.
Same procedure was repeated by using test tube made by polypropylene instead of glass test tube.

[4] = Stability of human ghrelin in pH-adjusted purified water at 25°C (Example 7); format: physicochemical; conditions: for Peak area ratio to total peak area: 25±2°C
Method: Human ghrelin was dissolved in the purified water with about 0.03 μmol/mL (0.1 mg/mL). […] This solution was divided into quarter, and one portion was kept alone and the pH values of the remaining three portions were adjusted to pH 1.8 (with 17 mM of hydrochloric acid), pH 3.9 (with 0.20 mM of hydrochloric acid) and pH 7.8 (with 0.24 mM of sodium hydroxide) respectively, by adding along with hydrochloric acid or sodium hydroxide aqueous solution.

CCCCCCCC(=O)OC[C@H](NC(=O)[C@H](CO)NC(=O)CN)C(=O)N[C@@H](Cc1ccccc1)C(=O)N[C@@H](CC(C)C)C(=O)N[C@@H](CO)C(=O)N1CCC[C@H]1C(=O)N[C@@H](CCC(=O)O)C(=O)N[C@@H](Cc1c[nH]cn1)C(=O)N[C@@H](CCC(N)=O)C(=O)N[C@@H](CCCNC(=N)N)C(=O)N[C@H](C(=O)N[C@@H](CCC(N)=O)C(=O)N[C@@H](CCC(N)=O)C(=O)N[C@@H](CCCNC(=N)N)C(=O)N[C@@H](CCCCN)C(=O)N[C@@H](CCC(=O)O)C(=O)N[C@@H](CO)C(=O)N[C@@H](CCCCN)C(=O)N[C@@H](CCCCN)C(=O)N1CCC[C@H]1C(=O)N1CCC[C@H]1C(=O)N[C@@H](C)C(=O)N[C@@H](CCCCN)C(=O)N[C@@H](CC(C)C)C(=O)N[C@@H](CCC(N)=O)C(=O)N1CCC[C@H]1C(=O)N[C@@H](CCCNC(=N)N)C(=O)O)C(C)C [Human ghrelin]
Peak area ratio to total peak area ([1]; pH 6, 25±2°C, 8 hr. after): 98.87% | pH observed ([1]; pH 6, 25±2°C, 8 hr. after): 6.0 | Peak area ratio to total peak area ([1]; pH 6, 25±2°C, 24 hr. after): 98.28% | pH observed ([1]; pH 6, 25±2°C, 24 hr. after): 6.0 | Peak area ratio to total peak area ([1]; pH 6, 25±2°C, 48 hr. after): 97.64% | pH observed ([1]; pH 6, 25±2°C, 48 hr. after): 6.0 | Peak area ratio to total peak area ([1]; pH 6, 25±2°C, 48 hr. after, listed as human ghrelin): less than 98% | Peak area ratio to total peak area ([1]; pH 6, 25±2°C, 72 hr. after): 96.92% | pH observed ([1]; pH 6, 25±2°C, 72 hr. after): 6.0 | Peak area ratio to total peak area ([1]; pH 6, 25±2°C, before storage): 99.07% | pH observed ([1]; pH 6, 25±2°C, before storage): 6.0 | Peak area ratio to total peak area ([1]; pH 7, 25±2°C, 8 hr. after): 98.15% | pH observed ([1]; pH 7, 25±2°C, 8 hr. after): 7.0 | Peak area ratio to total peak area ([1]; pH 7, 25±2°C, 24 hr. after): 96.18% | pH observed ([1]; pH 7, 25±2°C, 24 hr. after): 7.0 | Peak area ratio to total peak area ([1]; pH 7, 25±2°C, 24 hr. after, listed as human ghrelin): less than 98% | Peak area ratio to total peak area ([1]; pH 7, 25±2°C, 48 hr. after): 93.44% | pH observed ([1]; pH 7, 25±2°C, 48 hr. after): 7.0 | Peak area ratio to total peak area ([1]; pH 7, 25±2°C, 72 hr. after): 90.75% | pH observed ([1]; pH 7, 25±2°C, 72 hr. after): 7.0 | Peak area ratio to total peak area ([1]; pH 7, 25±2°C, before storage): 98.97% | pH observed ([1]; pH 7, 25±2°C, before storage): 7.0 | Peak area ratio to total peak area ([1]; pH 8, 25±2°C, 8 hr. after): 94.73% | pH observed ([1]; pH 8, 25±2°C, 8 hr. after): 7.9 | Peak area ratio to total peak area ([1]; pH 8, 25±2°C, 24 hr. after): 87.32% | pH observed ([1]; pH 8, 25±2°C, 24 hr. after): 7.9 | Peak area ratio to total peak area ([1]; pH 8, 25±2°C, 48 hr. after): 76.95% | pH observed ([1]; pH 8, 25±2°C, 48 hr. after): 7.9 | Peak area ratio to total peak area ([1]; pH 8, 25±2°C, 72 hr. after): 68.30% | pH observed ([1]; pH 8, 25±2°C, 72 hr. after): 7.9 | Peak area ratio to total peak area ([1]; pH 8, 25±2°C, before storage): 98.61% | pH observed ([1]; pH 8, 25±2°C, before storage): 8.0 | pH value of the solution [2]: 3.5 | Human ghrelin concentration of the solution (Initial Conc. = 100) ([3]; Glass tube, replaced 5 times): 0 | Human ghrelin concentration of the solution (Initial Conc. = 100) ([3]; Glass tube, replaced 10 times): 0 | Human ghrelin concentration of the solution (Initial Conc. = 100) ([3]; Initial Conc.): 100 | Human ghrelin concentration of the solution (Initial Conc. = 100) ([3]; Polypropylene tube, replaced 5 times): 51 | Human ghrelin concentration of the solution (Initial Conc. = 100) ([3]; Polypropylene tube, replaced 10 times): 19 | Peak area ratio to total peak area ([4]; human ghrelin 0.1 mg/mL in purified water adjusted to pH 1.8 with hydrochloric acid, 1 day after): 97.68% | Peak area ratio to total peak area ([4]; human ghrelin 0.1 mg/mL in purified water adjusted to pH 1.8 with hydrochloric acid, 1 day after, listed as human ghrelin): less than 98% | Peak area ratio to total peak area ([4]; human ghrelin 0.1 mg/mL in purified water adjusted to pH 1.8 with hydrochloric acid, 3 days after): 95.01% | Peak area ratio to total peak area ([4]; human ghrelin 0.1 mg/mL in purified water adjusted to pH 1.8 with hydrochloric acid, before storage): 99.16% | Peak area ratio to total peak area ([4]; human ghrelin 0.1 mg/mL in purified water adjusted to pH 3.9 with hydrochloric acid, 1 day after): 99.19% | Peak area ratio to total peak area ([4]; human ghrelin 0.1 mg/mL in purified water adjusted to pH 3.9 with hydrochloric acid, 3 days after): 99.14% | Peak area ratio to total peak area ([4]; human ghrelin 0.1 mg/mL in purified water adjusted to pH 3.9 with hydrochloric acid, before storage): 99.21% | Peak area ratio to total peak area ([4]; human ghrelin 0.1 mg/mL in purified water adjusted to pH 7.8 with sodium hydroxide, 1 day after): 94.78% | Peak area ratio to total peak area ([4]; human ghrelin 0.1 mg/mL in purified water adjusted to pH 7.8 with sodium hydroxide, 1 day after, listed as human ghrelin): less than 98% | Peak area ratio to total peak area ([4]; human ghrelin 0.1 mg/mL in purified water adjusted to pH 7.8 with sodium hydroxide, 3 days after): 87.84% | Peak area ratio to total peak area ([4]; human ghrelin 0.1 mg/mL in purified water adjusted to pH 7.8 with sodium hydroxide, before storage): 98.85% | Peak area ratio to total peak area ([4]; human ghrelin 0.1 mg/mL in purified water, pH 4.7 (not adjusted), 1 day after): 99.12% | Peak area ratio to total peak area ([4]; human ghrelin 0.1 mg/mL in purified water, pH 4.7 (not adjusted), 3 days after): 98.94% | Peak area ratio to total peak area ([4]; human ghrelin 0.1 mg/mL in purified water, pH 4.7 (not adjusted), before storage): 99.20% | pH of the solution ([4]; human ghrelin dissolved in purified water, about 0.03 μmol/mL (0.1 mg/mL)): 4.7
